In brackets after ≈: the same amount, converted by molar mass.
Legend:
male db/db mice = test: Hypoglycemic and hypolipidemic activity in db/db mice; assay type: in vivo; settings: 3 mg/kg/day orally for 2 consecutive weeks, plasma 24 hours after final administration, non-fasting, vs control group
Method: Using db/db mice genetically showing high plasma glucose, hypertriglyceridemia, insulin resistance and obesity, the pharmacological activity of the test compounds of Examples 1, 2 and 20 was examined.
Blood was drawn under a non-fasting state from the tail vein of male db/db mice, the glucose level and triglyceride level of the plasma were measured using commercially available assay kits (glucose CII-test WAKO and triglyceride G-test WAKO, Wako Pure Chemical Industries, Ltd.). The mice were grouped (6 mice per group) into a control group and test compound (compounds of Examples 1, 2 and 20) administration group (3 mg/kg/day), such that the mean and standard deviation of the body weight and the plasma glucose and plasma triglyceride levels in each group were nearly the same. The test compound was suspended in 0.5% methylcellulose solution and administered orally for 2 consecutive weeks from the next day. The 0.5% methylcellulose solution was orally administered to the control group. Blood was drawn under a non-fasting state from the tail vein 24 hours after the final administration and the glucose and triglyceride levels of the plasma were measured. The decrease in the plasma glucose and triglyceride levels was calculated from the following formula. Decrease (%)=[(mean of control group−mean of test compound administration group)/mean of control group]×100 Results

male KK-A^y mice = test: Hypoglycemic and hypolipidemic activity in spontaneously diabetic KK-Ay mice; assay type: in vivo; settings: 10 mg/kg/day orally for 4 consecutive days, plasma 24 hours after final administration, non-fasting, vs control group
Method: Blood was drawn under a non-fasting state from the tail vein of male KK-A^y mice, and the glucose and triglyceride levels of the plasma were measured using commercially available assay kits (glucose CII-test WAKO and triglyceride G-test WAKO, Wako Pure Chemical Industries, Ltd.). The mice were grouped (5 mice per group) into a control group and an administration group, such that the mean and standard deviation of the body weight and the plasma glucose and plasma triglyceride levels in each group were nearly the same. The test compounds (compounds of Examples 1, 2, 4, 8, 20, 22, 24, 27, 30, 33, 36, 37, 40, 45, 47, 52, 56, 58 and 64) were suspended in 5% gum arabic solution and administered (10 mg/kg/day) orally to the administration group for 4 consecutive days. The 5% gumarabic solution was orally administered to the control group. Blood was drawn under a non-fasting state from the tail vein 24 hours after the final administration and the glucose and triglyceride levels of the plasma were measured. The decrease in the plasma glucose and triglyceride levels was calculated from the following formula. Decrease (%)=[(mean of control group−mean of test compound administration group)/mean of control group]×100 Results

male ICR mice = test: Toxicity by repeat administration in ICR mice; assay type: in vivo; settings: 30 and 100 mg/kg/day orally for 2 consecutive weeks, vs control group; for plasma volume: calculated from Evans blue concentration; for weight of the heart / weight of the liver: wet weight
Method: Using 7-week-old male ICR mice, toxicity by repeat administration was examined.
The mice were grouped (7 mice per group) into a control group and test compound (compounds of Examples 2 and 20) administration groups (30 and 100 mg/kg/day), such that the mean and the standard deviation of the body weight of the mice were nearly the same. The test compound was suspended in 0.5% methylcellulose solution and administered orally for 2 consecutive weeks from the next day. The 0.5% methylcellulose solution was orally administered to the control group. At 24 hours after the final administration, Evans blue (100 μg/mouse) was administered from the tail vein and, 5 min later, the blood was drawn from the orbital venous plexus with anesthesia. Using EDTA-added blood, hematocrit value and erythrocyte count were measured. Using the plasma, Evans blue concentration was measured, from which plasma volume was calculated. The liver and heart were removed and wet weight was measured.

female Wistar rats = test: Toxicity by repeat administration in Wistar rats; assay type: in vivo; settings: 30 and 100 mg/kg/day orally for 2 consecutive weeks, vs control group; for ALT (GPT) / AST (GOT): serum; for weight of the heart / weight of the liver / weight of the white fat around the uterus: wet weight
Method: Using 6-week-old female Wistar rats, toxicity by repeat administration was examined.
The rats were grouped (6 rats per group) into a control group and test compound (compounds of Examples 2 and 20) administration groups (30 and 100 mg/kg/day), such that the mean and the standard deviation of the body weight of the rats were nearly the same. The test compound was suspended in 0.5% methylcellulose solution and administered orally for 2 consecutive weeks from the next day. The 0.5% methylcellulose solution was orally administered to the control group. The rats were fasted for 16 hr from the last day of administration, anesthetized by intraperitoneal administration of pentobarbital sodium (50 mg/kg) 24 hr after the final administration and the blood was drawn. Using EDTA-added blood, hematocrit value and erythrocyte count were measured, and using serum, AST (GOT) and ALT (GPT) were measured. In addition, the white fat around the uterus, and the liver and heart were removed and the wet weights thereof were measured.

[1] = Solubility of the compound in water (buffer pH 7.0); assay type: physicochemical; settings: 25 mg in 1.0 ml buffer pH 7.0, shaken at 25° C. for 1 hr, filtrate by HPLC
Method: The pulverized test compound (compounds of Examples 2, 20, 22, 24, 27, 30, 40 or 65, 25 mg) was added to a buffer (1.0 ml, pH 7.0) and the mixture was shaken at 25° C. for 1 hr and passed through a membrane filter. The concentration of the test compound in the filtrate was measured by high performance liquid chromatography.

SMILES	Decrease (%) in glucose level (male db/db mice)	Decrease (%) in triglyceride level (male db/db mice)	Decrease (%) in glucose level (male KK-A^y mice)	Decrease (%) in triglyceride level (male KK-A^y mice)	plasma volume (male ICR mice)	body weight (male ICR mice)	erythrocyte count (male ICR mice)	hematocrit value (male ICR mice)	weight of the heart (male ICR mice)	weight of the liver (male ICR mice)	ALT (GPT) (female Wistar rats)	AST (GOT) (female Wistar rats)	erythrocyte count (female Wistar rats)	hematocrit value (female Wistar rats)	weight of the heart (female Wistar rats)	weight of the liver (female Wistar rats)	weight of the white fat around the uterus (female Wistar rats)	Solubility (mg/ml) [1]	Solubility [1]
CCC/C=C/c1nc(CCOc2ccc3c(c2)CN(C(=O)C=CCCCC)[C@H](C(=O)[O-])C3)c(C)o1.[Na+] (stereo in doubt) [Example 1, sodium 2-(2-heptenoyl)-7-[2-(5-methyl-2-(trans-1-penten-1-yl)oxazol-4-yl)ethoxy]-1,2,3,4-tetrahydroisoquinoline-(3S)-carboxylate]	21.3%	62.7%	46.1%	45.3%															
CC(C)(C)N.CC=CC=CC(=O)N1Cc2cc(OCCc3nc(/C=C/CC(C)C)oc3C)ccc2C[C@H]1C(=O)O (stereo in doubt) [Example 20, tert-butylamine 2-(2,4-hexadienoyl)-7-{2-[5-methyl-2-(4-methyl-trans-1-penten-1-yl)oxazol-4-yl]ethoxy}-1,2,3,4-tetrahydroisoquinoline-(3S)-carboxylate]	54.0%	72.0%	57.7%	65.6%	no significant difference	no significant difference	no significant difference	no significant difference	no significant difference	no significant difference	no significant difference	no significant difference	no significant difference	no significant difference	no significant difference	no significant difference	no significant difference	25 or above mg/ml	
CC=CC=CC(=O)N1Cc2cc(OCCc3nc(/C=C/CCC)oc3C)ccc2C[C@H]1C(=O)O (stereo in doubt) [Example 2, 2-(2,4-hexadienoyl)-7-[2-(5-methyl-2-(trans-1-penten-1-yl)oxazol-4-yl)ethoxy]-1,2,3,4-tetrahydroisoquinoline-(3S)-carboxylic acid]	57.2%	78.1%	40.3%	40.5%	no significant difference	no significant difference	no significant difference	no significant difference	no significant difference	no significant difference	no significant difference	no significant difference	no significant difference	no significant difference	no significant difference	no significant difference	no significant difference		10000 µg/mL (≈ 21.5 mM)
